The results in this text go back to US11198713B2, “Agents modulating beta-catenin functions and methods thereof” (FOG PHARMACEUTICALS, INC., priority 2017, dated 2021).

The target in this test is T1, full-length beta-catenin (Axin site) (Homo sapiens, UniProt P35222).
T1 construct: 15 nM full-length beta-catenin, 20 nM FITC labeled peptide in buffer
T1 sequence (P35222 1-781): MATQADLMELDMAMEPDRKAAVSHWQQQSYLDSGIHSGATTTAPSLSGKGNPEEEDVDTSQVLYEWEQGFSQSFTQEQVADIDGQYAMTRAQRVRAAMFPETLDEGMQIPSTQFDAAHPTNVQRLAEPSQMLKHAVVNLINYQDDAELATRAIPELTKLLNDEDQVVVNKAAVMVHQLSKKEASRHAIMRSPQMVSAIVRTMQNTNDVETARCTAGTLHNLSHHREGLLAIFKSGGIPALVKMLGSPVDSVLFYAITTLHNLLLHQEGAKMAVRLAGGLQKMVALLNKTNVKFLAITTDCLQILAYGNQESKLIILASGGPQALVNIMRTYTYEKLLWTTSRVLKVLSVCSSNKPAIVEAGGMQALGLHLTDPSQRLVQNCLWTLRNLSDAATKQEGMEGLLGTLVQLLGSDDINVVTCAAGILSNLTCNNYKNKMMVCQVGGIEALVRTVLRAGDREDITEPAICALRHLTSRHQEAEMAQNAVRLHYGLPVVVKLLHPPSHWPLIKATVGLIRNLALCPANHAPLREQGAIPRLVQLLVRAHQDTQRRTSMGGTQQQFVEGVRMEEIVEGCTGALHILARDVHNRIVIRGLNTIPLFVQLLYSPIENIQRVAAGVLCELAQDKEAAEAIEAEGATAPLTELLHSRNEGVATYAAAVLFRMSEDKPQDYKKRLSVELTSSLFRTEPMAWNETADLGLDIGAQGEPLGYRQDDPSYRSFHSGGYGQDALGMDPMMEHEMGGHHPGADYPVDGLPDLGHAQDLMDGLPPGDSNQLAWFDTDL
In words: Competition fluorescence polarization assay (Axin site probe). The format is binding. The conditions noted are these: competition fluorescence polarization, Table 2; read-out: in vitro FP EC50. The method in brief:
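Competition FP: 15 nM full-length β-catenin pre-incubated 5 min with 20 nM FITC-labelled stapled Axin-site peptide, then titrated peptide added (3-fold series from 5 μM) for 15 min in the dark. Buffer 50 mM Tris pH 8.0, 250 mM NaCl, 2% glycerol, 0.5 mM EDTA; duplicate reads.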
Turning to `CC[C@H](C)[C@@H]1NC(=O)[C@](C)(NC(=O)[C@H](CCC(N)=O)NC(=O)[C@@H]2CCCN2C(C)=O)CCCCCC=CCOC(=O)N2CC[C@](C(=O)N[C@@H](Cc3c[nH]cn3)C(=O)N[C@H](C(=O)N[C@@H](CCCNC(=N)N)C(=O)N[C@@H](CCCNC(=N)N)C(=O)N[C@H](C(=O)N[C@@H](Cc3c[nH]c4ccccc34)C(=O)N[C@@H](CCCNC(=N)N)C(N)=O)C(C)C)C(C)C)(C2)NC(=O)[C@H](CC(=O)O)NC(=O)[C@H](CC(C)C)NC1=O` (single isomer, unassigned) [FP0768c, Ac-P-Q-R7-I-L-D-MC-H-V-R-R-V-W-R-NH2], the EC50 lay within 100 to 500 nM.

Regarding `CC[C@H](C)[C@@H]1NC(=O)[C@](C)(NC(=O)[C@H](CCC(N)=O)NC(=O)[C@@H]2CCCN2C(C)=O)CCCC=CCN(C)CC[C@](C)(C(=O)N[C@@H](Cc2c[nH]cn2)C(=O)N[C@H](C(=O)N[C@@H](CCCNC(=N)N)C(=O)N[C@@H](CCCNC(=N)N)C(=O)N[C@H](C(=O)N[C@@H](Cc2c[nH]c3ccccc23)C(=O)N[C@@H](CCCNC(=N)N)C(N)=O)C(C)C)C(C)C)NC(=O)[C@H](CC(=O)O)NC(=O)[C@H](CC(C)C)NC1=O` (single isomer, unassigned) [FP0776a, Ac-P-Q-R5-I-L-D-MG-H-V-R-R-V-W-R-NH2], the EC50 fell in the range of 500 to 5000 nM.

On to `CC[C@H](C)[C@@H]1NC(=O)[C@](C)(NC(=O)[C@H](CCC(N)=O)NC(=O)[C@@H]2CCCN2C(C)=O)CCCC=CCOC(=O)N(C)CC[C@](C)(C(=O)N[C@@H](Cc2c[nH]cn2)C(=O)N[C@H](C(=O)N[C@@H](CCCNC(=N)N)C(=O)N[C@@H](CCCNC(=N)N)C(=O)N[C@H](C(=O)N[C@@H](Cc2c[nH]c3ccccc23)C(=O)N[C@@H](CCCNC(=N)N)C(N)=O)C(C)C)C(C)C)NC(=O)[C@H](CC(=O)O)NC(=O)[C@H](CC(C)C)NC1=O` (single isomer, unassigned) [FP0776c, Ac-P-Q-R5-I-L-D-MG-H-V-R-R-V-W-R-NH2], for which the EC50 lay within 500 to 5000 nM.

Consider `CC[C@H](C)[C@@H]1NC(=O)[C@](C)(NC(=O)[C@H](CCC(N)=O)NC(=O)[C@@H]2CCCN2C(C)=O)CCCC=CCN(C)CCC[C@](C)(C(=O)N[C@@H](Cc2c[nH]cn2)C(=O)N[C@H](C(=O)N[C@@H](CCCNC(=N)N)C(=O)N[C@@H](CCCNC(=N)N)C(=O)N[C@H](C(=O)N[C@@H](Cc2c[nH]c3ccccc23)C(=O)N[C@@H](CCCNC(=N)N)C(N)=O)C(C)C)C(C)C)NC(=O)[C@H](CC(=O)O)NC(=O)[C@H](CC(C)C)NC1=O` (single isomer, unassigned) [FP0777a, Ac-P-Q-R5-I-L-D-MI-H-V-R-R-V-W-R-NH2], for which the EC50 was 500 to 5000 nM.

As for `CC[C@H](C)[C@@H]1NC(=O)[C@](C)(NC(=O)[C@H](CCC(N)=O)NC(=O)[C@@H]2CCCN2C(C)=O)CCCC=CCOC(=O)N(C)CCC[C@](C)(C(=O)N[C@@H](Cc2c[nH]cn2)C(=O)N[C@H](C(=O)N[C@@H](CCCNC(=N)N)C(=O)N[C@@H](CCCNC(=N)N)C(=O)N[C@H](C(=O)N[C@@H](Cc2c[nH]c3ccccc23)C(=O)N[C@@H](CCCNC(=N)N)C(N)=O)C(C)C)C(C)C)NC(=O)[C@H](CC(=O)O)NC(=O)[C@H](CC(C)C)NC1=O` (single isomer, unassigned) [FP0777c, Ac-P-Q-R5-I-L-D-MI-H-V-R-R-V-W-R-NH2], the EC50 fell in the range of 500 to 5000 nM.

As to `CC[C@H](C)[C@@H]1NC(=O)[C@@](C)(NC(=O)[C@H](CCC(N)=O)NC(=O)[C@@H]2CCCN2C(C)=O)CN(C)C(=O)OCC=CCCC[C@@](C)(C(=O)N[C@@H](Cc2c[nH]cn2)C(=O)N[C@H](C(=O)N[C@@H](CCCNC(=N)N)C(=O)N[C@@H](CCCNC(=N)N)C(=O)N[C@H](C(=O)N[C@@H](Cc2c[nH]c3ccccc23)C(=O)N[C@@H](CCCNC(=N)N)C(N)=O)C(C)C)C(C)C)NC(=O)[C@H](CC(=O)O)NC(=O)[C@H](CC(C)C)NC1=O` (single isomer, unassigned) [FP0778c, Ac-P-Q-MD-I-L-D-S5-H-V-R-R-V-W-R-NH2], the EC50 lay in the range of 500 to 5000 nM.

With `CC[C@H](C)[C@@H]1NC(=O)[C@@](C)(NC(=O)[C@H](CCC(N)=O)NC(=O)[C@@H]2CCCN2C(C)=O)CCN(C)C(=O)OCC=CCCC[C@@](C)(C(=O)N[C@@H](Cc2c[nH]cn2)C(=O)N[C@H](C(=O)N[C@@H](CCCNC(=N)N)C(=O)N[C@@H](CCCNC(=N)N)C(=O)N[C@H](C(=O)N[C@@H](Cc2c[nH]c3ccccc23)C(=O)N[C@@H](CCCNC(=N)N)C(N)=O)C(C)C)C(C)C)NC(=O)[C@H](CC(=O)O)NC(=O)[C@H](CC(C)C)NC1=O` (single isomer, unassigned) [FP0779c, Ac-P-Q-MF-I-L-D-S5-H-V-R-R-V-W-R-NH2], the EC50 lay in the range of 500 to 5000 nM.

In the case of `CC[C@H](C)[C@@H]1NC(=O)[C@@](C)(NC(=O)[C@H](CCC(N)=O)NC(=O)[C@@H]2CCCN2C(C)=O)CCCN(C)C(=O)OCC=CCCC[C@@](C)(C(=O)N[C@@H](Cc2c[nH]cn2)C(=O)N[C@H](C(=O)N[C@@H](CCCNC(=N)N)C(=O)N[C@@H](CCCNC(=N)N)C(=O)N[C@H](C(=O)N[C@@H](Cc2c[nH]c3ccccc23)C(=O)N[C@@H](CCCNC(=N)N)C(N)=O)C(C)C)C(C)C)NC(=O)[C@H](CC(=O)O)NC(=O)[C@H](CC(C)C)NC1=O` (single isomer, unassigned) [FP0780c, Ac-P-Q-MH-I-L-D-S5-H-V-R-R-V-W-R-NH2], the EC50 was 500 to 5000 nM.

Regarding `CC[C@H](C)[C@@H]1NC(=O)[C@](C)(NC(=O)[C@H](CCC(N)=O)NC(=O)[C@@H]2CCCN2C(C)=O)CCN(C)C(=O)OCC=CCCC[C@](C)(C(=O)N[C@@H](Cc2c[nH]cn2)C(=O)N[C@H](C(=O)N[C@@H](CCCNC(=N)N)C(=O)N[C@@H](CCCNC(=N)N)C(=O)N[C@H](C(=O)N[C@@H](Cc2c[nH]c3ccccc23)C(=O)N[C@@H](CCCNC(=N)N)C(N)=O)C(C)C)C(C)C)NC(=O)[C@H](CC(=O)O)NC(=O)[C@H](CC(C)C)NC1=O` (single isomer, unassigned) [FP0782c, Ac-P-Q-MG-I-L-D-R5-H-V-R-R-V-W-R-NH2], the EC50 fell in the range of 100 to 500 nM.

With `CC[C@H](C)[C@@H]1NC(=O)[C@](C)(NC(=O)[C@H](CCC(N)=O)NC(=O)[C@@H]2CCCN2C(C)=O)CCCN(C)CC=CCCC[C@](C)(C(=O)N[C@@H](Cc2c[nH]cn2)C(=O)N[C@H](C(=O)N[C@@H](CCCNC(=N)N)C(=O)N[C@@H](CCCNC(=N)N)C(=O)N[C@H](C(=O)N[C@@H](Cc2c[nH]c3ccccc23)C(=O)N[C@@H](CCCNC(=N)N)C(N)=O)C(C)C)C(C)C)NC(=O)[C@H](CC(=O)O)NC(=O)[C@H](CC(C)C)NC1=O` (single isomer, unassigned) [FP0783a, Ac-P-Q-MI-I-L-D-R5-H-V-R-R-V-W-R-NH2], the EC50 is 500 to 5000 nM.

`CC[C@H](C)[C@@H]1NC(=O)[C@](C)(NC(=O)[C@H](CCC(N)=O)NC(=O)[C@@H]2CCCN2C(C)=O)CCCN(C)C(=O)OCC=CCCC[C@](C)(C(=O)N[C@@H](Cc2c[nH]cn2)C(=O)N[C@H](C(=O)N[C@@H](CCCNC(=N)N)C(=O)N[C@@H](CCCNC(=N)N)C(=O)N[C@H](C(=O)N[C@@H](Cc2c[nH]c3ccccc23)C(=O)N[C@@H](CCCNC(=N)N)C(N)=O)C(C)C)C(C)C)NC(=O)[C@H](CC(=O)O)NC(=O)[C@H](CC(C)C)NC1=O` (single isomer, unassigned) [FP0783c, Ac-P-Q-MI-I-L-D-R5-H-V-R-R-V-W-R-NH2]: the EC50 fell in the range of 500 to 5000 nM.
